Test results from article PMC6483092 (ACS infectious diseases, 2019).

Experiments:
[1] = system: HIV-1IIIB (wild-type); conditions: HIV-1IIIB strain (wild-type virus)
[2] = system: HIV-1; conditions: as described in the literature; cited from earlier work

Q: For CC[C@H](C)[C@H](NC(=O)[C@H](CC(C)C)NC(=O)[C@H](CO)NC(=O)[C@H](Cc1c[nH]cn1)NC(=O)[C@@H](NC(=O)[C@H](CC(C)C)NC(=O)[C@H](CO)NC(=O)[C@@H](NC(=O)[C@H](Cc1ccc(O)cc1)NC(=O)[C@H](CC(N)=O)NC(=O)[C@H](CC(N)=O)NC(=O)[C@@H](NC(=O)[C@H](CCC(=O)O)NC(=O)[C@H](CCCNC(=N)N)NC(=O)[C@H](CC(=O)O)NC(=O)[C@H](Cc1c[nH]c2ccccc12)NC(=O)[C@H](CCC(=O)O)NC(=O)[C@H](CCSC)NC(=O)[C@H](Cc1c[nH]c2ccccc12)NC(C)=O)[C@@H](C)CC)[C@@H](C)O)[C@@H](C)CC)C(=O)N[C@@H](CCC(=O)O)C(=O)N[C@@H](CCC(=O)O)C(=O)N[C@@H](CO)C(=O)N[C@@H](CCC(N)=O)C(=O)N[C@@H](CC(N)=O)C(=O)N[C@@H](CCC(N)=O)C(=O)N[C@@H](CCC(N)=O)C(=O)N[C@@H](CCC(=O)O)C(=O)N[C@@H](CCCCN)C(=O)N[C@@H](CC(N)=O)C(=O)N[C@@H](CCC(=O)O)C(=O)N[C@@H](CCC(N)=O)C(=O)N[C@@H](CCC(=O)O)C(=O)N[C@@H](CC(C)C)C(=O)N[C@@H](CC(C)C)C(=O)NCC(=O)N[C@@H](CO)C(=O)NCC(=O)N[C@@H](CSCC(=O)O[C@H]1CC[C@@]2(C)C(=CC[C@H]3[C@@H]4CC[C@H]([C@H](C)CCCC(C)(C)O)[C@@]4(C)CC[C@@H]32)C1)C(N)=O [C34-HC], which “IC50 times lower than enfuvirtide” value [1] is on record?
A: The value was 25 times.

Q: And the “IC90 times lower than enfuvirtide” value [1]?
A: Its value is 40 times.

Q: For “WMEWDREINNYTSL-IHSLIEESQNQQEKNEQELL [C34]”, which IC50 [2] is on record?
A: The IC50 was 1.4 nM.
